According to ChEMBL document CHEMBL1147564, “Synthesis and anti-inflammatory activity of natural and semisynthetic geranyloxycoumarins” (2004):

What was measured:
Type in all cases: functional
[1] = species: Mus musculus; test: Inhibitory activity against mouse uM/cm**2 (control=7.0)
[2] = species: Mus musculus; test: (§1) Percent uM/cm**2
[3] = species: Mus musculus; test: as §1; set-up: concentration or dose not given beside the values

Row | SMILES | ear oedema weight [1] | Reduction [2] | Reduction [3]
1 | COc1ccc2c(c1)c(CC(=O)O)c(C)n2C(=O)c1ccc(Cl)cc1 [INDOMETHACIN] | 3.7 mg | 47% | 
2 | CC(=O)Oc1c(OC/C=C(\C)CCC=C(C)C)ccc2ccc(=O)oc12 | 3.4 mg |  | 51%
3 | CC(C)=CCC/C(C)=C/COc1ccc2ccc(=O)oc2c1Cl | 4.5 mg |  | 36%
4 | CC(C)=CCC/C(C)=C/COc1ccc2ccc(=O)oc2c1F | 5.1 mg |  | 27%
5 | CC(C)=CCC/C(C)=C/COc1ccc2ccc(=O)oc2c1C | 4.8 mg |  | 31%
6 | CC(C)=CCC/C(C)=C/COc1ccc2ccc(=O)oc2c1Br | 4 mg |  | 43%
7 | CC(C)=CCC/C(C)=C/COc1ccc2ccc(=O)oc2c1OC/C=C(\C)CCC=C(C)C | 5.1 mg |  | 27%
8 | CC(C)=CCC/C(C)=C/COc1ccc2ccc(=O)oc2c1O | 4.3 mg |  | 39%
9 | CC(C)=CCC/C(C)=C/COc1ccc2ccc(=O)oc2c1 [AURAPTENE] | 3.4 mg |  | 51%
10 | COc1c(OC/C=C(\C)CCC=C(C)C)ccc2ccc(=O)oc12 [COLLININ] | 3.7 mg |  | 47%
11 | CCCCCOc1c(OC/C=C(\C)CCC=C(C)C)ccc2ccc(=O)oc12 | 6.4 mg |  | 9%
12 | CC(C)=CCC/C(C)=C/COc1ccc2ccc(=O)oc2c1I | 5 mg |  | 29%
